Measurements from patent publication US5420282A, “Thiopyrano(2,3,4-c,d) indolyloxime ether alkylcarboxylates” (Abbott Laboratories, priority 1994, dated 1995).

System: calcium ionophore-induced LTB4 biosynthesis
Experiment: Inhibition of calcium ionophore-induced LTB4 biosynthesis in human whole blood
Type: cell-based
Conditions: human heparinized whole blood; 15 min preincubation at 37° C.; A23187 8.3 μM, 30 minutes; LTB4 by radioimmunoassay; read-out: IC50, inhibition of leukotriene biosynthesis in human whole blood
Experimental: Inhibition of leukotriene biosynthesis was evaluated in an assay, involving calcium ionophore-induced LTB4 biosynthesis expressed human whole blood. Human heparinized whole blood was proincubated with test compounds or vehicle for 15 min at 37° C. followed by calcium ionophore A23187 challenge (final concentration of 8.3 μM) and the reaction terminated after 30 minutes by adding two volumes of methanol containing prostaglandin B2 as an internal recovery standard. The methanol extract was analyzed for LTB4 using a commercially available radioimmunoassay.

SMILES	IC50 [nM]
CC1Cc2c(OCc3ccc4ccccc4n3)ccc3c2c(c(CC(C)(C)C=NOCC(=O)O)n3Cc2ccc(Cl)cc2)S1 (centres unmarked) [Example 1, 3-[1-(4-chlorobenzyl)-4-methyl-6-(quinolin-2-ylmethoxy]-4,5-dihydro-1H-thiopyrano[2,3,4-c,d]indol-2-yl]-2,2dimethylpropionaldehyde oxime-O-acetic acid]	2700
CC1Cc2c(OCc3ccc(-c4ccccc4)cn3)ccc3c2c(c(CC(C)(C)C=NOCC(=O)O)n3Cc2ccc(Cl)cc2)S1 (centres unmarked) [Example 2, 3-[1-(4-chlorobenzyl)-4-methyl-6-(5-phenylpyridin-2-ylmethoxy]-4,5-dihydro-1H-thiopyrano[2,3,4-c,d]indol-2-yl]-2,2-dimethylpropionaldehyde oxime-O-acetic acid]	400
